Test results from publication PMC6120666 (The EMBO Journal, 2018).

Legend:
Test in all cases: Drug affinity chromatography with c-ponatinib and LC-MS/MS (ponatinib interactome)
Format in all cases: binding
[1] = biological target: T1, proteins of U2OS cell lysate (Homo sapiens, UniProt Q9P0K7); conditions: RAI14, Ankycorbin
T1 construct: Proteins enriched by c-ponatinib from U2OS cell lysate; endogenous in cells; host or cells: U2OS cell lysate
Outline: (§1)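 Proteins were identified by nano-UPLC–MS/MS after elution with formic acid and trypsin digestion. They were captured from U2OS lysate (2 mg protein per pulldown, NP-40 buffer) on amine-coupled NHS beads during a 2 h incubation at 4 °C.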

[2] = biological target: T2, proteins of U2OS cell lysate (Homo sapiens, UniProt P62491); conditions: RAB11A;RAB11B, Ras-related protein Rab-11A
T2 construct: Proteins enriched by c-ponatinib from U2OS cell lysate; endogenous in cells; host or cells: U2OS cell lysate
Outline: as §1

[3] = biological target: T3, proteins of U2OS cell lysate (Homo sapiens, UniProt P29323); conditions: EPHB2, Ephrin type-B receptor 2
T3 construct: Proteins enriched by c-ponatinib from U2OS cell lysate; endogenous in cells; host or cells: U2OS cell lysate
Outline: as §1

[4] = biological target: T4, proteins of U2OS cell lysate (Homo sapiens, UniProt Q01082); conditions: SPTBN1, Spectrin beta chain, non-erythrocytic 1
T4 construct: Proteins enriched by c-ponatinib from U2OS cell lysate; endogenous in cells; host or cells: U2OS cell lysate
T4 sequence (Q01082 whole entry): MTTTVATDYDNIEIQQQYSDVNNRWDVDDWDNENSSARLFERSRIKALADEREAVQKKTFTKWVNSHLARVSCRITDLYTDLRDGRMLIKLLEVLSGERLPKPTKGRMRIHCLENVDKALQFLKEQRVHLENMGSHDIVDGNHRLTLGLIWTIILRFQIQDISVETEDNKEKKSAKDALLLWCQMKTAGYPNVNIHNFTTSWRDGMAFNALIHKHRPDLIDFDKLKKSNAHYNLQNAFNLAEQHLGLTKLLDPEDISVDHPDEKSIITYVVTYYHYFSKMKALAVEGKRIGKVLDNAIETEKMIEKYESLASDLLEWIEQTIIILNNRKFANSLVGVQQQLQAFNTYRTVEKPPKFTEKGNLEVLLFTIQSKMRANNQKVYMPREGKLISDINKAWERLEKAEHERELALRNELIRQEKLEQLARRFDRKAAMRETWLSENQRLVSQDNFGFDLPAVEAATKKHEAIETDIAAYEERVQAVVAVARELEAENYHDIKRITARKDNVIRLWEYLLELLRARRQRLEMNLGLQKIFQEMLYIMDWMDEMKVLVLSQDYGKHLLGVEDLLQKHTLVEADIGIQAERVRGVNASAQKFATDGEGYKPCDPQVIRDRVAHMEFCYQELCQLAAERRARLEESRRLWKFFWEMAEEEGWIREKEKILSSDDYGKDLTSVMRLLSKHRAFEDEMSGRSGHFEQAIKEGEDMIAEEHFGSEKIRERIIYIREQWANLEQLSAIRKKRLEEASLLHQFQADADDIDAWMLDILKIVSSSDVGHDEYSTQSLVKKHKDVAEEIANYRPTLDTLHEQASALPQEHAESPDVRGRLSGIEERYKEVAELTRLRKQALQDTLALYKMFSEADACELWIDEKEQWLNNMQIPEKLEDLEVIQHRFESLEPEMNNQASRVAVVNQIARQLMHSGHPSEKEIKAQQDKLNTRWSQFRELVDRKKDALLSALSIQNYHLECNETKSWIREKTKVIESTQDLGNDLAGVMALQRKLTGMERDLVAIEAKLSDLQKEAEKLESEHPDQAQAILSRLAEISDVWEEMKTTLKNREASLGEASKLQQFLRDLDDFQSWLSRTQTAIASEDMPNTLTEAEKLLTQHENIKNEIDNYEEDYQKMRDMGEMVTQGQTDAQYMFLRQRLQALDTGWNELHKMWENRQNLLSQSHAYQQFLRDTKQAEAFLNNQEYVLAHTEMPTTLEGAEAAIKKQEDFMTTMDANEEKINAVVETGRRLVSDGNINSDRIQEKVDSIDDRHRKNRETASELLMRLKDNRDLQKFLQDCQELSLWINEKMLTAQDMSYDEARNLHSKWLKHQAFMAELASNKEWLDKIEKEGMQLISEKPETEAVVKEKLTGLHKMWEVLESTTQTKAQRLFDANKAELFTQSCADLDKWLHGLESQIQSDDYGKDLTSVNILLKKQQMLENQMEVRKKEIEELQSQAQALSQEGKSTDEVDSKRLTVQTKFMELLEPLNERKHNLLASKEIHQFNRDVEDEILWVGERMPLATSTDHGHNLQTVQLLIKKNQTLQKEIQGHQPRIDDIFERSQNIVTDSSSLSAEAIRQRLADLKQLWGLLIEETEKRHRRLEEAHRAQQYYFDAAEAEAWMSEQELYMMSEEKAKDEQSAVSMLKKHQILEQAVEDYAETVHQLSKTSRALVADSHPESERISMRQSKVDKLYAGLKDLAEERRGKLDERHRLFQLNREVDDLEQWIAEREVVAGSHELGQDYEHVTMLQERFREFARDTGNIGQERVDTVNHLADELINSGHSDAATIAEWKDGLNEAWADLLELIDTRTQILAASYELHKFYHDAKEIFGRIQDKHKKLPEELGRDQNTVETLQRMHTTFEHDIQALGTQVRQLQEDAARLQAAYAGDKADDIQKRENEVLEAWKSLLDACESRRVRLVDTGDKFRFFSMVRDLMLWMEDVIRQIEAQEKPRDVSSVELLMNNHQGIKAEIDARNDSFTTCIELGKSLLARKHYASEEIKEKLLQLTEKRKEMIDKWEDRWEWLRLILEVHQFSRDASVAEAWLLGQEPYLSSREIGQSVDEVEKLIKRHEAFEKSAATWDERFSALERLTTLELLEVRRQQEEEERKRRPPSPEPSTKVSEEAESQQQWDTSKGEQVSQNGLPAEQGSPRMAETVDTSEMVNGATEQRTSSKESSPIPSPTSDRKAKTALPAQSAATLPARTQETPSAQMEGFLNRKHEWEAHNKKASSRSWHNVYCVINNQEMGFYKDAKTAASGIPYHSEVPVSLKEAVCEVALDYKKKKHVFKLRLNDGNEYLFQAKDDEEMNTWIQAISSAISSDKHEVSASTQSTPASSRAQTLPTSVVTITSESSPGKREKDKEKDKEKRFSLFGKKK
Outline: as §1

[5] = biological target: T5, proteins of U2OS cell lysate (Homo sapiens, UniProt P48047); conditions: ATP5O, ATP synthase subunit O, mitochondrial
T5 construct: Proteins enriched by c-ponatinib from U2OS cell lysate; endogenous in cells; host or cells: U2OS cell lysate
T5 sequence (P48047 24-213): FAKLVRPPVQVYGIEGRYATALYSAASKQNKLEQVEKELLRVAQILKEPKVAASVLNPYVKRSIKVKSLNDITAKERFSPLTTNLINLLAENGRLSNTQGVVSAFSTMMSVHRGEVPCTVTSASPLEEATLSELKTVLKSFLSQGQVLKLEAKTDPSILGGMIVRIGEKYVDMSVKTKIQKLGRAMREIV
Outline: as §1

[6] = biological target: T6, proteins of U2OS cell lysate (Homo sapiens, UniProt Q15233); conditions: NONO, Non-POU domain-containing octamer-binding protein
T6 construct: Proteins enriched by c-ponatinib from U2OS cell lysate; endogenous in cells; host or cells: U2OS cell lysate
Outline: as §1

[7] = biological target: T7, proteins of U2OS cell lysate (Homo sapiens, UniProt Q14498); conditions: RBM39, RNA-binding protein 39
T7 construct: Proteins enriched by c-ponatinib from U2OS cell lysate; endogenous in cells; host or cells: U2OS cell lysate
T7 sequence (Q14498 whole entry): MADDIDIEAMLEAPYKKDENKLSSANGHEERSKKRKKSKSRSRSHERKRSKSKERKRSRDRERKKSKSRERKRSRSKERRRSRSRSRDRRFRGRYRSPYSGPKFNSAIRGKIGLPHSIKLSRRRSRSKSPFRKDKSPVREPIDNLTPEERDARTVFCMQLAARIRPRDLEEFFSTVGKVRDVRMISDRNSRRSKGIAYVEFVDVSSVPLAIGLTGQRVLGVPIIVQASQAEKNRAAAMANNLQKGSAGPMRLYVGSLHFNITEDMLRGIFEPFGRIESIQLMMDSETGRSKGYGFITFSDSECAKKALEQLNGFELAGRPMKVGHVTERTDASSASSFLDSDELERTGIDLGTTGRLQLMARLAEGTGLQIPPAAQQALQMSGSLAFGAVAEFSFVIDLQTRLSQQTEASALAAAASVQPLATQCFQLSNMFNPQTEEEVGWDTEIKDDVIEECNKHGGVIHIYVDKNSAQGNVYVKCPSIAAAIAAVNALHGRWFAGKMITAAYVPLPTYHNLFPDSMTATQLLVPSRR
Outline: as §1

[8] = biological target: T8, proteins of U2OS cell lysate (Homo sapiens, UniProt P00387); conditions: CYB5R3, NADH-cytochrome b5 reductase 3
T8 construct: Proteins enriched by c-ponatinib from U2OS cell lysate; endogenous in cells; host or cells: U2OS cell lysate
Outline: as §1

[9] = biological target: T9, proteins of U2OS cell lysate (Homo sapiens, UniProt P62269); conditions: RPS18, 40S ribosomal protein S18
T9 construct: Proteins enriched by c-ponatinib from U2OS cell lysate; endogenous in cells; host or cells: U2OS cell lysate
Outline: as §1

[10] = biological target: T10, proteins of U2OS cell lysate (Homo sapiens, UniProt Q96MW5); conditions: COG8, Conserved oligomeric Golgi complex subunit 8
T10 construct: Proteins enriched by c-ponatinib from U2OS cell lysate; endogenous in cells; host or cells: U2OS cell lysate
Outline: as §1

[11] = biological target: T11, proteins of U2OS cell lysate (Homo sapiens, UniProt P07947); conditions: YES1, Tyrosine-protein kinase Yes
T11 construct: Proteins enriched by c-ponatinib from U2OS cell lysate; endogenous in cells; host or cells: U2OS cell lysate
Outline: as §1

[12] = biological target: T12, proteins of U2OS cell lysate (Homo sapiens, UniProt P62249); conditions: RPS16, 40S ribosomal protein S16
T12 construct: Proteins enriched by c-ponatinib from U2OS cell lysate; endogenous in cells; host or cells: U2OS cell lysate
Outline: as §1

[13] = biological target: T13, proteins of U2OS cell lysate (Homo sapiens, UniProt P49368); conditions: CCT3, T-complex protein 1 subunit gamma
T13 construct: Proteins enriched by c-ponatinib from U2OS cell lysate; endogenous in cells; host or cells: U2OS cell lysate
Outline: as §1

[14] = biological target: T14, proteins of U2OS cell lysate (Homo sapiens, UniProt P00403); conditions: MT-CO2, Cytochrome c oxidase subunit 2
T14 construct: Proteins enriched by c-ponatinib from U2OS cell lysate; endogenous in cells; host or cells: U2OS cell lysate
T14 sequence (P00403 whole entry): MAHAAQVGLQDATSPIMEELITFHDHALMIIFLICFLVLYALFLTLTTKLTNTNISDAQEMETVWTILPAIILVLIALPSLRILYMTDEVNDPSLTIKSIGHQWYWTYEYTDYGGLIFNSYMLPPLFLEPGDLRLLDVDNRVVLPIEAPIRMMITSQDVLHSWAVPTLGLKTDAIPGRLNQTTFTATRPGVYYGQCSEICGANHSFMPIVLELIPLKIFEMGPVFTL
Outline: as §1

[15] = biological target: T15, proteins of U2OS cell lysate (Homo sapiens, UniProt P56381); conditions: ATP5E;ATP5EP2, ATP synthase subunit epsilon, mitochondrial
T15 construct: Proteins enriched by c-ponatinib from U2OS cell lysate; endogenous in cells; host or cells: U2OS cell lysate
T15 sequence (P56381 whole entry): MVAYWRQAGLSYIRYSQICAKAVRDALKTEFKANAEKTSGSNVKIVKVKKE
Outline: as §1

[16] = biological target: T16, proteins of U2OS cell lysate (Homo sapiens, UniProt P55060); conditions: CSE1L, Exportin-2
T16 construct: Proteins enriched by c-ponatinib from U2OS cell lysate; endogenous in cells; host or cells: U2OS cell lysate
Outline: as §1

[17] = biological target: T17, proteins of U2OS cell lysate (Homo sapiens, UniProt Q9ULV4); conditions: CORO1C, Coronin-1C
T17 construct: Proteins enriched by c-ponatinib from U2OS cell lysate; endogenous in cells; host or cells: U2OS cell lysate
T17 sequence (Q9ULV4 whole entry): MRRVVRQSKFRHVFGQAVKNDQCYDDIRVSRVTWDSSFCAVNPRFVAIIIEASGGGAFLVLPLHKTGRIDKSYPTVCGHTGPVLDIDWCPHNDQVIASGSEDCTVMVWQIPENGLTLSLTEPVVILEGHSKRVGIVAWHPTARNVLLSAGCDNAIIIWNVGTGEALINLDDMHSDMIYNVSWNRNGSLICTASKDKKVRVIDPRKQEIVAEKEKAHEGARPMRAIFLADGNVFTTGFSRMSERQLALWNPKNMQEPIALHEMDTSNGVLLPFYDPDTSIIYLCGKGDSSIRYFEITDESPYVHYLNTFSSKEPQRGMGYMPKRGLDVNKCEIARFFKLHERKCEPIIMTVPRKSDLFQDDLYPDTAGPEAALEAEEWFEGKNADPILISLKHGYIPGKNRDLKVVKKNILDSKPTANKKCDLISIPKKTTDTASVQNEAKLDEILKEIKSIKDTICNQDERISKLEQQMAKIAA
Outline: as §1

[18] = biological target: T18, proteins of U2OS cell lysate (Homo sapiens, UniProt Q14204); conditions: DYNC1H1, Cytoplasmic dynein 1 heavy chain 1
T18 construct: Proteins enriched by c-ponatinib from U2OS cell lysate; endogenous in cells; host or cells: U2OS cell lysate
Outline: as §1

[19] = biological target: T19, proteins of U2OS cell lysate (Homo sapiens, UniProt Q92522); conditions: H1FX, Histone H1x
T19 construct: Proteins enriched by c-ponatinib from U2OS cell lysate; endogenous in cells; host or cells: U2OS cell lysate
T19 sequence (Q92522 whole entry): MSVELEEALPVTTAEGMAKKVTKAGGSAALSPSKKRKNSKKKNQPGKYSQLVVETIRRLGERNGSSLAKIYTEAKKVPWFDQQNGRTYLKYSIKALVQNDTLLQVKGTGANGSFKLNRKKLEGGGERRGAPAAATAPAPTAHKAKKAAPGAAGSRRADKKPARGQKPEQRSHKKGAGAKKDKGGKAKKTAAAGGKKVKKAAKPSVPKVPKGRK
Outline: as §1

T1 sequence (Q9P0K7 whole entry): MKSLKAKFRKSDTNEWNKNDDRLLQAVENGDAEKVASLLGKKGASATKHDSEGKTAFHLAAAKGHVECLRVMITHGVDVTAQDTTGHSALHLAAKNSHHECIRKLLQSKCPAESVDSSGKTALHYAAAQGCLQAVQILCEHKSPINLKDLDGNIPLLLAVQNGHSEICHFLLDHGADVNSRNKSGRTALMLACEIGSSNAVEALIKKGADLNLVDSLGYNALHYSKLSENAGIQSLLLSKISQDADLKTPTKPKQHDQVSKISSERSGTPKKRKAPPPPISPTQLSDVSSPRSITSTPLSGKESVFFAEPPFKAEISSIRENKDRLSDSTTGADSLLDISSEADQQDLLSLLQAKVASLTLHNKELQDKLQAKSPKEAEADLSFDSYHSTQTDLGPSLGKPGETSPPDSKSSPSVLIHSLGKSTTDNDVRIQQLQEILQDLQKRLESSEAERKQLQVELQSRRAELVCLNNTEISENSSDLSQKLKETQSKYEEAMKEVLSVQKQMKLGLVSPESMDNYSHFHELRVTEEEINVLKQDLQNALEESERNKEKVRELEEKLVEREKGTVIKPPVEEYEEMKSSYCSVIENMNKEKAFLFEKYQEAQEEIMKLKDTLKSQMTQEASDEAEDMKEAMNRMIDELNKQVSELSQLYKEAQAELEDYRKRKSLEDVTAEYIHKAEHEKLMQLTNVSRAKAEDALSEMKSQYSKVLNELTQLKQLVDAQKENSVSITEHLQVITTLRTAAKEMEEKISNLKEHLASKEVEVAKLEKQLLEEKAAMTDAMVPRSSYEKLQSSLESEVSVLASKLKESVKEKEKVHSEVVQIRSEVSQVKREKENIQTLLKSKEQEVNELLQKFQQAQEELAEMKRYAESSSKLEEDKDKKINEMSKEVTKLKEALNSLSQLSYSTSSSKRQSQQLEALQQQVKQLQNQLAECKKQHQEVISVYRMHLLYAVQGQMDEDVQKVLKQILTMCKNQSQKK

## Cc1ccc(C(=O)Nc2ccc(CN3CCN(C)CC3)c(C(F)(F)F)c2)cc1C#Cc1cnc2cccnn12 [PON]
[1]
  Average LFQ PON_WT: 19.7116
[2]
  Average LFQ PON_WT: 22.3634
[3]
  Average LFQ PON_WT: 23.9034
[4]
  Average LFQ PON_WT: 25.171
[5]
  Average LFQ PON_WT: 24.0207
[6]
  Average LFQ PON_WT: 20.9839
[7]
  Average LFQ PON_WT: 20.4989
[8]
  Average LFQ PON_WT: 20.8184
[9]
  Average LFQ PON_WT: 21.0717
[10]
  Average LFQ PON_WT: 20.9378
[11]
  Average LFQ PON_WT: 25.9404
[12]
  Average LFQ PON_WT: 20.8259
[13]
  Average LFQ PON_WT: 23.8873
[14]
  Average LFQ PON_WT: 20.775
[15]
  Average LFQ PON_WT: 23.9529
[16]
  Average LFQ PON_WT: 25.3839
[17]
  Average LFQ PON_WT: 24.6024
[18]
  Average LFQ PON_WT: 24.2612
[19]
  Average LFQ PON_WT: 20.0616
